# “And” between values parts separate entries of the source, which are not always exact repeats. Identical values can stand only once.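 48-hour exposure; five concentrations; linearly interpolated endpoints. The concentration for 50% growth inhibition is given as GI50. Definition used: TGI = concentration required for complete inhibition of growth.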
# Legend:
# Assay in all cases: NCI anticancer screen, dose series, 48 h
# [1] = test system: CAKI-1 renal
# [2] = test system: SK-MEL-28 melanoma
# [3] = test system: RXF 393 renal
# [4] = test system: SK-MEL-2 melanoma
# [5] = test system: HL-60(TB) leukemia
# [6] = test system: ACHN renal
# [7] = test system: HOP-18 NSCLC
# [8] = test system: DMS 273 small cell lung
# [9] = test system: SK-OV-3 ovarian
# [10] = test system: T-47D breast
Compound,TGI [1],TGI [2],TGI [3],TGI [4],TGI [5],TGI [6],TGI [7],TGI [8],TGI [9],GI50 [1],GI50 [2],GI50 [8],GI50 [3],GI50 [4],GI50 [5],GI50 [9],GI50 [10],TGI [10],GI50 [6],GI50 [7]
Cn1c(=O)c2/c(n(C)c1=O)=N\C=c1\c(=O)n(C)c(=O)n(C)\c1=N\C=2,> 100 µM,> 100 µM,> 100 µM,> 100 µM,> 100 µM,> 100 µM,> 100 µM,–,–,–,–,–,–,–,–,–,–,–,–,–
Brc1cc2c(cc1Br)CN(c1ccccc1)C2,–,> 100 µM,> 100 µM,> 100 µM,> 100 µM,> 100 µM,–,> 100 µM,> 100 µM,–,–,–,–,–,–,–,–,–,–,–
CCN(CC)C(=S)[S][Bi]([S]C(=S)N(CC)CC)[S]C(=S)N(CC)CC,0.776 µM,0.492 µM,0.36 µM,0.774 µM,19.9 µM,0.488 µM,0.375 µM,0.221 µM,3.14 µM,199 nM,218 nM,56 nM,183 nM,0.3 µM,127 nM,1740 nM,122 nM,0.341 µM,226 nM,202 nM
C[C@]12CCC(=O)C=C1CC[C@@H]1C2CC[C@]2(C)c3nn(-c4ccccc4)nc3CC12 (stereo partly drawn),–,> 100 µM,> 100 µM,> 100 µM,> 100 µM,> 100 µM,–,> 100 µM,> 100 µM,–,–,–,–,–,–,–,–,–,–,–
CN(C)CC/C(=N\Nc1ccc(Cl)cc1Cl)c1ccccc1,–,28.5 µM,20.6 µM,28.6 µM,21.6 µM,29.4 µM,28.7 µM,27 µM,24.8 µM,–,–,–,–,–,–,–,–,–,–,–
NNC(=O)C(=O)N/N=C(\CCC(=O)Nc1ccc(Cl)cc1)Cc1nc2ccccc2s1,> 100 µM,> 100 µM,> 100 µM,> 100 µM,> 100 µM,> 100 µM,38.7 µM,67.8 µM,> 100 µM,–,–,–,–,–,–,–,–,–,–,–
Cc1cccc2c(O)cc(=O)oc12,–,> 100 µM,> 100 µM,–,> 100 µM,> 100 µM,> 100 µM,–,> 100 µM,–,–,–,–,–,–,–,–,–,–,–
O=S1Nc2c(Cl)cc(Cl)c(Cl)c2S1 (stereo not drawn),> 100 µM,> 100 µM,> 100 µM,> 100 µM,> 100 µM,> 100 µM,> 100 µM,> 100 µM,> 100 µM,–,–,–,–,–,–,–,–,–,–,–
O=NN(CCCl)C(=O)NC1CCC(CC2CCC(NC(=O)N(CCCl)N=O)CC2)CC1 (stereo not drawn),> 100 µM,> 100 µM,44.6 µM,> 100 µM,> 100 µM,> 100 µM,> 56.2 µM,85.5 µM,> 86.4 µM,–,–,–,–,–,–,–,–,–,–,–
OCCN1CCN(CC/C=C2/c3ccccc3Sc3ccc(Cl)cc32)CC1,24.4 µM,3.38 µM,26.5 µM,28.3 µM,16 µM,29.7 µM,24 µM,18.9 µM,29.3 µM,–,–,–,–,–,–,–,–,–,–,–
CCCCCCCCCCC(C)CCCCCCC(=O)O (stereo not drawn),> 100 µM,> 100 µM,> 100 µM,> 100 µM,> 100 µM,> 100 µM,> 100 µM,> 100 µM,> 100 µM,–,–,–,–,–,–,–,–,–,–,–
CCN(CC)CC(=N)N(CC)c1ccccc1,> 100 µM,> 100 µM,> 100 µM,> 100 µM,> 100 µM,> 100 µM,> 100 µM,–,> 100 µM,–,–,–,–,–,–,–,–,–,–,–
O=C(/C=C\c1cccc2ccccc12)c1cccc2ccccc12,32.4 µM,20.5 µM,20.1 µM,36.8 µM,9.29 µM and 25.6 µM,24.1 µM,–,24.7 µM,–,–,–,4030 nM,7460 nM,–,2900 nM,–,–,–,–,–
O=C(NC(=O)c1ccccc1[N+](=O)[O-])Nc1ccc(Oc2ncc(Cl)cn2)c(C(F)(F)F)c1,–,> 4.64 µM,–,–,0.125 µM,32.1 µM,> 100 µM,0.669 µM,> 46.5 µM,–,–,–,–,–,–,–,–,> 89.1 µM,–,–
C/C=N\N1C(=O)c2ccccc2C1=O,> 100 µM,> 100 µM,> 100 µM,> 100 µM,> 100 µM,> 100 µM,> 100 µM,> 100 µM,–,–,–,–,–,–,–,–,–,–,–,–
CNCCN=c1ccc2c3c1c(O)c1c(O)ccc(=O)c1c3[nH]n2CCNCCO,0.992 µM and 2.28 µM,6.87 µM,2.54 µM and 1.25 µM,–,0.663 µM and 1.22 µM,0.708 µM and 0.259 µM,2.18 µM and 7.73 µM and 6.04 µM,1.59 µM and 0.336 µM,3.25 µM and 5.72 µM,54 nM,1500 nM,53 nM and 97.8 nM,744 nM and 173 nM,–,49.6 nM and 314 nM,137 nM and 162 nM,–,5.35 µM,84.4 nM and 77.5 nM,–
CC(C)=CC(=O)Cc1nc2ccc([N+](=O)[O-])cc2[nH]c1=O,> 100 µM,> 100 µM,> 100 µM,> 100 µM,> 100 µM,> 100 µM,–,> 100 µM,> 100 µM,–,–,–,–,–,–,–,–,–,–,–
CCCCCCCCCCCCCCCCCC(=O)Nc1ccn(C2OC(CO)C(O)C2O)c(=O)n1 (stereo not drawn),> 100 µM,> 100 µM,> 100 µM,> 100 µM,41.8 µM,> 100 µM,> 100 µM,> 100 µM,> 100 µM,–,–,–,–,–,–,–,–,> 100 µM,–,–
CCc1cccc(C)c1NC(=O)CC1C(=O)Nc2ccccc2S1(=O)=O (stereo not drawn),31.2 µM,48.1 µM,40.4 µM,53.5 µM,40.2 µM,47.4 µM,–,25 µM,–,–,–,–,–,–,–,–,–,–,–,–
CCN(c1cc(C#CCN2CCOCC2)cc(C(=O)NCc2c(C)cc(C)[nH]c2=O)c1C)C1CCC(N(C)CCOC)CC1 (stereo not drawn),> 100 µM,> 100 µM,> 100 µM,> 100 µM,> 100 µM,> 100 µM,–,–,> 100 µM,> 100000 nM,> 100000 nM,–,> 100000 nM,> 100 µM,> 100000 nM,> 100000 nM,> 100000 nM,> 100 µM,> 100000 nM,–
N.N.O=P([O-])([O-])C1(P(=O)([O-])[O-])CCCCCN1.[Pt+2],> 100 µM,> 100 µM,> 100 µM,> 100 µM,> 100 µM,> 100 µM,> 100 µM,> 100 µM,> 100 µM,> 100000 nM,> 100000 nM,> 100000 nM,42300 nM,> 100 µM,> 100000 nM,> 100000 nM,–,–,> 100000 nM,> 100000 nM
